Test results published in article PMC6522510 (Nature Communications, 2019).
Like-named read-outs stand apart in the source and are kept apart here.

Experiments:
CHRF288-11 [1] = format: cell-based; details: Homo sapiens, 72 h
CMS [2] = format: cell-based; details: Homo sapiens, 72 h, read-out: IC50 CMS
[3] = system: CHRF288-11-luciferase/YFP+ xenograft; assay: In vivo efficacy, survival; parameters: species or system NSG mice; details: CHRF288-11 xenograft, 60 mg kg−1 twice daily for 5 days up to 4 weeks, oral gavage
[4] = system: AMKL patient-derived xenograft; assay: In vivo efficacy, survival; parameters: species or system NSG-SGM3 mice; details: AMKL PDX, 60 mg kg−1 twice daily for 5 days up to 4 weeks, oral gavage
[5] = Pharmacokinetics of ruxolitinib, single oral dose, plasma LC-MS/MS; format: in vivo, mice; details: mouse, 60 mg kg−1 oral gavage
Experimental: Data are mean ± standard error (SE) (N = 5 per gender). Concentration-time data were analyzed by non-compartmental analysis and pharmacokinetic parameters were calculated in WinNonLin. c–e, top Kaplan–Meier analysis of animal survival in c CHRF288–11-luciferase/YFP+ xenograft, d CBFA2T3-GLIS2/JAK2V617F-induced AMKL quaternary transplants, and e AMKL patient-derived xenograft.
Animal studies were performed under protocols approved by the Institutional Animal Care and Use Committee at OSU. […] Serial blood collection was performed from 15 min up to 240 min after dose administration.

[6] = system: CBFA2T3-GLIS2/JAK2V617F tertiary transplant leukemic blasts; format: cell-based, mouse
WSU = assay: cells; details: Homo sapiens, 72 h, read-out: IC50 (WSU)
M-MOK = assay: cells
CMY = assay: cells
CMK [7] = assay: cells
M07e [8] = assay: cells
MKPL = assay: cells
Meg-01 = assay: cells
CHRF288-11 [9] = assay: Primary HTS, single concentration, Cell Titer Glo; format: cell-based, human; details: approximately 10 µM, 72 h, relative to positive control
CMK [10] = assay: Primary HTS, single concentration, Cell Titer Glo; format: cell-based, human; details: approximately 10 µM, 72 h, relative to positive control
CMS [11] = assay: Primary HTS, single concentration, Cell Titer Glo; format: cell-based, human; details: approximately 10 µM, 72 h, relative to positive control
M07e [12] = assay: Primary HTS, single concentration, Cell Titer Glo; format: cell-based, human; details: approximately 10 µM, 72 h, relative to positive control
ML-2 = assay: Primary HTS, single concentration, Cell Titer Glo; format: cell-based, human; details: approximately 10 µM, 72 h, relative to positive control
MOLM-13 = assay: Primary HTS, single concentration, Cell Titer Glo; format: cell-based, human; details: approximately 10 µM, 72 h, relative to positive control
MV4-11 = assay: Primary HTS, single concentration, Cell Titer Glo; format: cell-based, human; details: approximately 10 µM, 72 h, relative to positive control
U937 [13] = assay: Primary HTS, single concentration, Cell Titer Glo; format: cell-based, human; details: approximately 10 µM, 72 h, relative to positive control
CHRF288-11 [14] = assay: Secondary dose-response HTS, Cell Titer Glo; format: cell-based, human; details: secondary HTS, 72 h, average of triplicate; read-out: EC50 CHRF288-11
CMK [15] = assay: Secondary dose-response HTS, Cell Titer Glo; format: cell-based, human; details: secondary HTS, 72 h, average of triplicate; read-out: EC50 CMK
CMS [16] = assay: Secondary dose-response HTS, Cell Titer Glo; format: cell-based, human; details: secondary HTS, 72 h, average of triplicate; read-out: EC50 CMS
U937 [17] = assay: Secondary dose-response HTS, Cell Titer Glo; format: cell-based, human; details: secondary HTS, 72 h, average of triplicate; read-out: EC50 U937

Question: Which IC50 (CHRF288-11 [1]; read-out: IC50, ruxolitinib + BMP2, CHRF288-11, 72 h, with 100 ng mL−1 BMP2) does the source give for `N#CC[C@H](C1CCCC1)n1cc(-c2ncnc3[nH]ccc23)cn1` [Ruxolitinib, ruxolitinib] here?
Answer: 103 nM

Question: What about the IC50 (CHRF288-11 [1]; read-out: IC50, ruxolitinib + EPO, CHRF288-11, 72 h, with 100 ng mL−1 EPO) of the same molecule?
Answer: 142 nM

Question: And the IC50 (CHRF288-11 [1]; read-out: IC50, ruxolitinib + TPO, CHRF288-11, 72 h, with 100 ng mL−1 TPO)?
Answer: 480 nM

Question: And the IC50 (CHRF288-11 [1]; read-out: IC50, ruxolitinib alone (Fig. 6g), CHRF288-11, 72 h, without cytokine)?
Answer: 119 nM

Question: What about the IC50 (CHRF288-11 [1]; read-out: IC50 CHRF288-11, 72 h, Cell Titer Glo) of the same molecule?
Answer: 143 nM

Question: And the IC50 (CMS [2])?
Answer: 64 nM

Question: And the Median survival [3]?
Answer: 31 days

Question: What about the Median survival [4] of the same molecule?
Answer: 43 days

Question: What about the AUC(0-t) ([5]; BoyJ, Female) of the same molecule?
Answer: 16.8 ± 10.8 µM·h

Question: And the Cmax ([5]; BoyJ, Female)?
Answer: 18.1 ± 10.6 µM

Question: And the Tmax ([5]; BoyJ, Female)?
Answer: 15 min

Question: And the half-life ([5]; BoyJ, Female)?
Answer: 122 ± 66 min

Question: What about the AUC(0-t) ([5]; BoyJ, Male) of the same molecule?
Answer: 17.9 ± 6.5 µM·h

Question: What about the Cmax ([5]; BoyJ, Male) of the same molecule?
Answer: 28.6 ± 10.6 µM

Question: And the Tmax ([5]; BoyJ, Male)?
Answer: 15 min

Question: What about the half-life ([5]; BoyJ, Male) of the same molecule?
Answer: 158 ± 104 min

Question: And the AUC(0-t) ([5]; NSG, Female)?
Answer: 4.8 ± 0.6 µM·h

Question: What about the Cmax ([5]; NSG, Female) of the same molecule?
Answer: 6.9 ± 1.7 µM

Question: What about the Tmax ([5]; NSG, Female) of the same molecule?
Answer: 15 min

Question: And the half-life ([5]; NSG, Female)?
Answer: 75.6 ± 28.8 min

Question: And the AUC(0-t) ([5]; NSG, Male)?
Answer: 4.1 ± 0.6 µM·h

Question: What about the Cmax ([5]; NSG, Male) of the same molecule?
Answer: 5.5 ± 1.7 µM

Question: And the Tmax ([5]; NSG, Male)?
Answer: 15 min

Question: What about the half-life ([5]; NSG, Male) of the same molecule?
Answer: 79.2 ± 44.4 min

Question: And the “sensitivity of primary murine blasts” value [6]?
Answer: sensitive

Question: And the IC50 (WSU)?
Answer: 8.7 nM

Question: And the IC50 (M-MOK)?
Answer: 6.4 nM

Question: What about the IC50 (CMY) of the same molecule?
Answer: 49 nM

Question: And the IC50 (CMK [7])?
Answer: 142 nM

Question: And the IC50 (M07e [8])?
Answer: 45 nM

Question: What about the IC50 (MKPL) of the same molecule?
Answer: 6300 nM

Question: And the IC50 (Meg-01)?
Answer: > 10000 nM

Question: Which CHRF288-11 %inh (CHRF288-11 [9]) does the source give for `CC(/C=C/C(=O)NO)=C\[C@@H](C)C(=O)c1ccc(N(C)C)cc1` [Trichostatin A] here?
Answer: 190%

Question: And the CMK %inh (CMK [10])?
Answer: 137%

Question: And the CMS %inh (CMS [11])?
Answer: 111%

Question: What about the M07e %inh (M07e [12]) of the same molecule?
Answer: 147%

Question: What about the ML-2 %inh (ML-2) of the same molecule?
Answer: 60%

Question: And the MOLM-13 %inh (MOLM-13)?
Answer: 98%

Question: And the MV4-11 %inh (MV4-11)?
Answer: 81%

Question: What about the U937 %inh (U937 [13]) of the same molecule?
Answer: 83%

Question: What about the EC50 (CHRF288-11 [14]) of the same molecule?
Answer: 40 nM

Question: What about the EC50 (CMK [15]) of the same molecule?
Answer: 50 nM

Question: And the EC50 (CMS [16])?
Answer: 40 nM

Question: And the EC50 (U937 [17])?
Answer: 40 nM
